Assays:
NAALADase = NAALADase (Rattus norvegicus, UniProt P70627); test: In vitro inhibition of NAALADase activity; assay type: biochemical; conditions: for Ki: read-out: K1
male Brown Norway rats [1] = test: Experimental rat glaucoma (IOP elevation by hypertonic saline), optic nerve fiber counting; assay type: in vivo; conditions: 8 week group, 10 mg/kg daily i.p.
Protocol: (§1) All experiments complied with the Association for Research in Vision and Ophthalmology Statement for the Use of Animals in Ophthalmic and Vision Research. 82 male Brown Norway rats (Rattus norvegicus), each weighing approximately 250 gm, were treated using procedures approved by the Animal Care Committee of the Johns Hopkins University School of Medicine. The rats were housed with a 12 hour light/12 hour dark cycle and fed ad libitum .
EXPERIMENTAL GLAUCOMA: Unilateral elevation of IOP was produced in 56 rats by microinjection of hypertonic saline into episcleral veins, following procedures described in Morrison, J. et al., IOVS (March 1998) 39:526-531. Beginning on the day of IOP elevation, the rats were treated daily with intraperitoneal injections of either a vehicle (23 rats with 50 mM HEPES-buffered saline) or a NAALADase inhibitor (11 rats with 10 mg/kg of 2-[[(2,3,4,5,6-pentafluorobenzyl)hydroxyphosphinyl]-methyl]pentanedioic acid (“Compound A”) and 22 rats with 10 mg/kg of 2-(3-sulfanylpropyl)pentanedioic acid (“Compound B”)). 11 saline treated rats, 11 Compound A treated rats and 11 Compound B treated rats were sacrificed at 8 weeks, and the remaining rats at 12 weeks, after initial IOP elevation.
(§2) OPTIC NERVE COUNTING: The rats were sacrificed by exsanguination under deep pentobarbital anesthesia. They were perfused through the heart with 2% paraformaldehyde/2% glutaraldehyde in 0.1 M phosphate buffer, pH 7.2, and the eyes with attached optic nerves were removed. A cross-section of the optic nerve from both experimental (glaucoma or transection) and control eyes was removed 1.5 mm posterior to the globe, 1 mm in thickness, and post-fixed in 2% osmium tetroxide in buffer. These were processed into epoxy resin, sectioned at 1 micron and stained with toluidine blue.
(§3) The area of the optic nerve cross-section was measured by outlining its outer border at 10×magnification on an image analysis system (Universal Imaging Corp., Westchester, Pa.) with Synsys digital camera and Metamorph software. Three area measurements were taken and the mean value was determined. To measure the density and fiber diameter distributions, images were captured with a 100× phase contrast objective from 10 different areas of each nerve. These were edited to eliminate non-neural objects and the size of each axon internal to the myelin sheath (its minimum diameter) and the density of axons/square mm were calculated for each image and nerve. The mean density was multiplied by total nerve area to yield fiber number for each nerve. The total fiber number in glaucoma or transection nerves was compared to the normal, fellow eye of each rat to yield a percent loss value. The number of axons counted among the 10 images was an approximately 20% sample of the 80-90,000 axons in normal rat nerves. The person measuring axon number was masked to the protocol conducted on the nerves.

male Brown Norway rats [2] = test: Optic nerve transection in rats, optic nerve fiber counting; assay type: in vivo, Rattus norvegicus; conditions: for FIBER NUMBER ± SEM / PERCENT DIFFERENCE ± SEM: 10 mg/kg daily i.p.; for PERCENT DIFFERENCE ± SEM: transected vs normal eye
Protocol: as §1
OPTIC NERVE TRANSECTION: The optic nerve was transected unilaterally in 26 rats under intraperitoneal pentobarbital anesthesia. The conjunctiva was opened with scissors and the optic nerve exposed by traction on extraocular muscles. The transection was performed with microscissors 5 mm posterior to the globe, with specific attention to avoidance of injury to major ocular blood vessels. Immediately after transection, the retina was examined ophthalmoscopically to assure that the retinal arterial blood supply was not disrupted. The conjunctiva was closed with absorbable suture and the eye dressed with antibiotic ointment. Beginning on the day of transection, the rats were treated daily with intraperitoneal injections of either a vehicle (9 rats with 50 mM HEPES-buffered saline) or a NAALADase inhibitor (8 rats with 10 mg/kg of Compound A and 9 rats with 10 mg/kg of Compound B). 5 saline treated rats, 3 Compound A treated rats and 4 Compound B treated rats were sacrificed at 2 weeks, and the remaining rats at 4 weeks, after transection.
as §2, §3

[3] = 2 weeks survival after transection
[4] = 4 weeks survival after transection

NAALADase, sequence (P70627 whole entry): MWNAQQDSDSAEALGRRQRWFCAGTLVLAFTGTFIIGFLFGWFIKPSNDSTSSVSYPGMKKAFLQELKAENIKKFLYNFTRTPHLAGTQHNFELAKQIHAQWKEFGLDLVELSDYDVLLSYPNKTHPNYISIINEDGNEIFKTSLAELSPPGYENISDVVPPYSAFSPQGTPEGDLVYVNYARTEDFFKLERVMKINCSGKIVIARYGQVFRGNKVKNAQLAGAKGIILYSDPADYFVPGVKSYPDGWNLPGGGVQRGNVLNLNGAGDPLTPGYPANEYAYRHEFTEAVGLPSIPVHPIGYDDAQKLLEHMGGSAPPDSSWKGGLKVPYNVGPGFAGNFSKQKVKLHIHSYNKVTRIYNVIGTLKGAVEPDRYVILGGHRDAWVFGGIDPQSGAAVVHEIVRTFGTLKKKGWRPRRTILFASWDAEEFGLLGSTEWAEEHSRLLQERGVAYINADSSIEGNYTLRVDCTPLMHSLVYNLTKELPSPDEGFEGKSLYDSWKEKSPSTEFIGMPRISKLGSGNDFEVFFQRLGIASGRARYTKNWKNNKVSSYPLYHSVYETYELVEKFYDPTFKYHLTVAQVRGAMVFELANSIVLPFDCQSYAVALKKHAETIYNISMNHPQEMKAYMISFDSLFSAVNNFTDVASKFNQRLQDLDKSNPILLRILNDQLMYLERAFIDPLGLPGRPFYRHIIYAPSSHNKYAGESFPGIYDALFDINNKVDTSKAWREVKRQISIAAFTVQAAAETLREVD

Molecule	Ki (NAALADase) [µM]	also measured
3-(2-Carboxy-4-hydroxycarbamoyl-butyl)-benzoic acid	–	IC50 (NAALADase): 0.0478 µM
O=C(O)c1ccc(OCCCSSCCCOc2ccc(C(=O)O)cc2C(=O)O)c(C(=O)O)c1 [4-[3-[[3-(2,4-dicarboxyphenoxy)-propyl]-dithio]propoxy]-1,3-benzenedicarboxylic acid]	3.75	–
O=C(O)c1cc(OCCS)cc(C(=O)O)c1 [5-(2-mercaptoethoxy)-1,3-benzenedicarboxylic acid]	14.5	–
O=C(O)CNc1cc(C(=O)O)cc(C(=O)O)c1 [5-[(carboxymethyl)amino]-1,3-benzenedicarboxylic acid]	100	–
O=C(O)c1ccc(Sc2ccccc2C(=O)O)c(C(=O)O)c1 [4-[(2-carboxyphenyl)thio]-1,3-benzenedicarboxylic acid]	3.98	–
O=C(O)c1cc(CCS)cc(C(=O)O)c1 [5-(2-mercaptoethyl)-1,3-benzenedicarboxylic acid]	5.1	–
O=C(O)CCC(CP(=O)(O)Cc1c(F)c(F)c(F)c(F)c1F)C(=O)O (stereo not drawn) [Compound A, 2-[[(2,3,4,5,6-pentafluorobenzyl)hydroxyphosphinyl]-methyl]pentanedioic acid]	–	FIBER NUMBER ± SEM (male Brown Norway rats [1]): 79156 ± 2436; PERCENT DIFFERENCE ± SEM (male Brown Norway rats [1]; fiber number glaucoma vs normal eye, positive = fewer fibers in glaucoma eye): −1.82 ± 2.92%; IOP INTEGRAL DIFFERENCE ± SEM (male Brown Norway rats [1]; glaucoma eye vs normal eye): 85 ± 37.5 mm Hg—days; remaining axons relative to the saline-treated rats (male Brown Norway rats [2]; 2 weeks after transection): 3 times; FIBER NUMBER ± SEM (male Brown Norway rats [2]; [3]): 26,426 ± 13,293; PERCENT DIFFERENCE ± SEM (male Brown Norway rats [2]; [3]): 65.3 ± 17.8%; FIBER NUMBER ± SEM (male Brown Norway rats [2]; [4]): 13,599 ± 3,519; PERCENT DIFFERENCE ± SEM (male Brown Norway rats [2]; [4]): 82.4 ± 4.0%
O=C(O)Cc1cc(C(=O)O)ccc1C(=O)O [2-carboxymethyl-1,4-benzenedicarboxylic acid]	9	–
O=C(O)c1cc(C(=O)O)cc(P(=O)(O)O)c1 [5-phosphono-1,3-benzenedicarboxylic acid]	14	–
O=C(O)c1cc(CNCc2ccco2)cc(C(=O)O)c1 [5-[[(2-furanylmethyl)amino]methyl]-1,3-benzenedicarboxylic acid]	50	–
O=C(Cc1cc(C(=O)O)cc(C(=O)O)c1)NO [5-[2-(hydroxyamino)-2-oxoethyl]-1,3-benzenedicarboxylic acid]	12	–
O=C(O)c1cc(CS)cc(C(=O)O)c1 [5-mercaptomethyl-1,3-benzenedicarboxylic acid]	6.5	–

Now from value to molecule, other results behind:

Ki (NAALADase) [µM]	Molecule	also measured
1.17	O=C(O)c1ccc(C(=O)c2ccc(Oc3ccc(C(=O)O)c(C(=O)O)c3)cc2)c(C(=O)O)c1 [4-[4-(2,4-dicarboxybenzoyl)phenoxy]-1,2-benzenedicarboxylic acid]	–
3.1	O=C(O)c1cc(CP(=O)(O)O)cc(C(=O)O)c1 [5-phosphonomethyl-1,3-benzenedicarboxylic acid]	–
3.3	O=C(O)c1cc(OCCCS)cc(C(=O)O)c1 [5-(3-mercaptopropoxy)-1,3-benzenedicarboxylic acid]	–
0.572	O=C(O)c1ccc(C(=O)O)c(Sc2ccccc2C(=O)O)c1 [2-[(2-carboxyphenyl)thio]-1,4-benzenedicarboxylic acid]	–
2.37	O=C(O)c1ccc(S(=O)(=O)c2cc(C(=O)O)ccc2C(=O)O)cc1 [2-[(4-carboxyphenyl)sulfonyl]-1,4-benzenedicarboxylic acid]	–
1.87	O=C(O)c1ccc(C(=O)O)c(S(=O)(=O)c2cc(C(=O)O)ccc2C(=O)O)c1 [2-[(2,5-dicarboxyphenyl)sulfonyl]-1,4-benzenedicarboxylic acid]	–
0.116	O=C(O)c1ccc(CCS)c(C(=O)O)c1 [4-(2-mercaptoethyl)-1,3-benzenedicarboxylic acid]	–
1	O=C(O)c1cc(C(=O)O)cc(C(=O)NO)c1 [5-[(hydroxyamino)-carbonyl]-1,3-benzenedicarboxylic acid]	–

From patent US7220780B2, “Naaladase inhibitors for treating retinal disorders and glaucoma” (Guilford Pharmaceuticals Inc., priority 2000, dated 2007)
